Reference: patent publication US5574178A, “4,6-Di-t-butyl-dihydrobenzofuran-5-ol and its derivatives” (Chugai Seiyaku Kabushiki Kaisha, priority 1992, dated 1996)

How the values were obtained:
Assay type in all cases: biochemical
[1] = tested on: lactoperoxidase reaction system (singlet oxygen); assay: Lactoperoxidase system (singlet oxygen system); conditions: pH 4.5, 37° C.
Procedure: The test compounds were evaluated under the following conditions for their effect against a lactoperoxidase reaction system.
Lactoperoxidase 10 μg/ml
Acetate buffer solution (pH 4.5)
A reaction solution was prepared by mixing hydrogen peroxide, sodium bromide and luminol in the acetate buffer solution and stored in ice until use. After warming the reaction solution at 37° C. for about 10 min, the reaction was started by addition of the lactoperoxidase solution. A measurement was started right after the addition of lactoperoxidase and subsequent stirring; chemiluminescence intensity was measured right after the start of the reaction. In the experimental model, luminol-dependent chemiluminescence induced by singlet oxygen generated by enzymatic reaction of lactoperoxidase was detected, thus enabling the measurement of the reactivity with singlet oxygen.

[2] = biological target: lipid peroxidation due to the autoxidation of linoleic acid; assay: Linoleic acid-MCLA system, Test Case 4; conditions: linoleic acid 10 mM, MCLA 2 μM, 1-butanol, 37° C.; read-out: 50% inhibition concentration
Procedure: The test compounds were evaluated for their inhibitory effect against lipid peroxidation due to the autoxidation of linoleic acid.
A reaction solution was prepared by mixing linoleic acid and MCLA (2-methyl-6-(p-methoxyphenyl)-3,7-dihydroimidazo[1,2-a]pyrazin-3-one) in 1-butanol and stored in ice until use. An amount of this reaction solution was sampled in a chemiluminescence measuring cell and, immediately thereafter, the intensity of chemiluminescence due to the autoxidation of linoleic acid was measured at 37° C. in a thermostatic bath. A normal chemiluminescence intensity measurement was conducted about 2-4 min later when the chemiluminescence substantially peaked.

[3] = tested on: xanthine oxidase (XOD)-hypoxanthine (HX) system (superoxide); assay: Xanthine oxidase system (superoxide generating system); conditions: pH 7.4, 37° C.
Procedure: The test compounds were evaluated under the following conditions for their effect in a reaction due to a xanthine oxidase (XOD)-hypoxanthine (HX) system in aqueous solution.
Xanthine oxidase 0.1 U/ml
Hepes buffer solution (pH 7.4)
A reaction solution was prepared by mixing hypoxanthine and luminol in the Hepes buffer solution and stored in ice until use. After warming the reaction solution at 37° C. for about 10 min, the reaction was started by addition of the xanthine oxidase solution. A measurement was started right after the addition of xanthine oxidase and subsequent stirring; chemiluminescence intensity was normally measured right after the start of the reaction. In the experimental model, luminol-dependent chemiluminescence induced by superoxide generated by enzymatic reaction of xanthine oxidase was detected, thus enabling the measurement of the reactivity with superoxide.

Rabbit LDL = assay: Amount of TBARS (Cu^2+-induced oxidation of rabbit LDL); conditions: 5 μM Cu^2+
Procedure: Rabbit LDL was prepared in accordance with the method of Havel et al. [Havel, R. J. et al., J. Clin. Invest., 34, (1955)]. After adding 5 μM of Cu^2+, the mixture was warmed until a thiobarbituric acid reactive substance (TBARS) was produced. The test compounds were evaluated for their anti-oxidative action with the amount of TBARS being used as an index. [formula]

Row | Compound | Chemiluminescence intensity (% of control) ([1]; at 20 μM of compound) | Chemiluminescence intensity (% of control) ([1]; at 200 μM of compound) | IC50 [2] [µM] | Chemiluminescence intensity (% of control) ([3]; at 20 μM of compound) | Chemiluminescence intensity (% of control) ([3]; at 200 μM of compound) | TBARS produced (%) (Rabbit LDL; at 10^-5 M of compound, 10 µM) | TBARS produced (%) (Rabbit LDL; at 10^-6 M of compound, 1 µM)
1 | CC1Cc2c(c(C(C)(C)C)cc(O)c2C(C)(C)C)O1 (stereo not drawn) [Comparison 6, reference compound] | 105.8 % of control | 8.1 % of control | 19 | 31.9 % of control | 24.0 % of control | – | –
2 | CC(C)(C)c1cc2c(c(C(C)(C)C)c1O)CCO2 [Compound a, 4,6-Di-tert-Butyl-5-Hydroxy-2,3-Dihydrobenzofuran] | 94.5 % of control | 56.6 % of control | 7 | 41.8 % of control | 26.1 % of control | 10.3 | 52.2
3 | CC1Cc2c(ccc(O)c2C(C)(C)C)O1 (stereo not drawn) [Comparison 2, reference compound] | 82.1 % of control | 15.1 % of control | 54 | 32.7 % of control | 3.2 % of control | – | –
4 | CC(C)(C)c1c(O)ccc2c1CCO2 [Comparison 1, reference compound] | 77.6 % of control | 6.0 % of control | 62 | 23.9 % of control | 6.3 % of control | – | –
5 | CC(C)(C)c1cc(O)c(C(C)(C)C)c2c1OCC2 [Comparison 5, reference compound] | 95.3 % of control | 4.5 % of control | 41 | 21.9 % of control | 8.2 % of control | – | –
